In patent US11878975B2, “Substituted indole compounds useful as TLR inhibitors” (BRISTOL-MYERS SQUIBB COMPANY, priority 2017, dated 2024):

How the values were obtained:
Format in all cases: cell-based
human TLR7 = target: T1, human TLR7 (Homo sapiens, UniProt Q9NYK1); test: TLR7 inhibition reporter assay (HEK-Blue cells, SEAP reporter, gardiquimod stimulation); conditions: HEK-Blue cells overexpressing human TLR7, SEAP reporter, gardiquimod 7.5 μM
T1 construct: host or cells: HEK-Blue cells
T1 sequence (Q9NYK1 27-1049): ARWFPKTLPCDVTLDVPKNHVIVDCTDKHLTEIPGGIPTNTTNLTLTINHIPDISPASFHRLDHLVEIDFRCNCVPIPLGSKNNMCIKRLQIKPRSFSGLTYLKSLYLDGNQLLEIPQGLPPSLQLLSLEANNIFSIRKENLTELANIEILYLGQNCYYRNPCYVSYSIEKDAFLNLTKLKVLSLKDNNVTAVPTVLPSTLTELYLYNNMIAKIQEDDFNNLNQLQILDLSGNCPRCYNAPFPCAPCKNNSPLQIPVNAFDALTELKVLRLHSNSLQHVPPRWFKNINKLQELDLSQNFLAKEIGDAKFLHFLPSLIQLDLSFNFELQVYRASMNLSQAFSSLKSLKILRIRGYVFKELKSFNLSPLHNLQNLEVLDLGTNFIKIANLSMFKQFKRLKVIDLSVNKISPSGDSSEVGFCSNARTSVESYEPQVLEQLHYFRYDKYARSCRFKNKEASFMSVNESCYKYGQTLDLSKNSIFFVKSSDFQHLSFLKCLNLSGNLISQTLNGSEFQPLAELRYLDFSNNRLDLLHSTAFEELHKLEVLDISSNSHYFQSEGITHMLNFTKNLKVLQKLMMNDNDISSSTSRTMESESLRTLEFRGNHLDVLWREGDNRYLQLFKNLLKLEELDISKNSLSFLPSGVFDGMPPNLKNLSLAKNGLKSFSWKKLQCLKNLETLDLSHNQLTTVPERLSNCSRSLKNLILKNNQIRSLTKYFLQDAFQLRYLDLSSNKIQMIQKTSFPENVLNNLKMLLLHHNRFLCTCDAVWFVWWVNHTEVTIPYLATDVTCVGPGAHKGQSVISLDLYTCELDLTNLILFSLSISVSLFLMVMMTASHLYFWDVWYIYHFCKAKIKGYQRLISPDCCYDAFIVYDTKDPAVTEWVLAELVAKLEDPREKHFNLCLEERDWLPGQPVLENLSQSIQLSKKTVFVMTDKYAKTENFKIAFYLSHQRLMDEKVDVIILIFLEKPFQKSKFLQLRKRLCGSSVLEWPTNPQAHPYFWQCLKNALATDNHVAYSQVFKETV
Summary of the method: (§1)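 Dose range 0.05 nM–50 μM; 30 min preincubation, RT. Agonists: TLR7 gardiquimod 7.5 μM, TLR8 R848 15.9 μM, TLR9 ODN2006 5 nM. 22 h, 37 °C, 5% CO2. SEAP (IFN-β minimal promoter with NF-κB/AP-1 sites) via colorimetric detection medium; % inhibition vs agonist+DMSO and reference-inhibitor wells.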

human TLR8 = target: T2, human TLR8 (Homo sapiens, UniProt Q9NR97); test: TLR8 inhibition reporter assay (HEK-Blue cells, SEAP reporter, R848 stimulation); conditions: HEK-Blue cells overexpressing human TLR8, SEAP reporter, R848 15.9 μM
T2 construct: host or cells: HEK-Blue cells
T2 sequence (Q9NR97 27-1041): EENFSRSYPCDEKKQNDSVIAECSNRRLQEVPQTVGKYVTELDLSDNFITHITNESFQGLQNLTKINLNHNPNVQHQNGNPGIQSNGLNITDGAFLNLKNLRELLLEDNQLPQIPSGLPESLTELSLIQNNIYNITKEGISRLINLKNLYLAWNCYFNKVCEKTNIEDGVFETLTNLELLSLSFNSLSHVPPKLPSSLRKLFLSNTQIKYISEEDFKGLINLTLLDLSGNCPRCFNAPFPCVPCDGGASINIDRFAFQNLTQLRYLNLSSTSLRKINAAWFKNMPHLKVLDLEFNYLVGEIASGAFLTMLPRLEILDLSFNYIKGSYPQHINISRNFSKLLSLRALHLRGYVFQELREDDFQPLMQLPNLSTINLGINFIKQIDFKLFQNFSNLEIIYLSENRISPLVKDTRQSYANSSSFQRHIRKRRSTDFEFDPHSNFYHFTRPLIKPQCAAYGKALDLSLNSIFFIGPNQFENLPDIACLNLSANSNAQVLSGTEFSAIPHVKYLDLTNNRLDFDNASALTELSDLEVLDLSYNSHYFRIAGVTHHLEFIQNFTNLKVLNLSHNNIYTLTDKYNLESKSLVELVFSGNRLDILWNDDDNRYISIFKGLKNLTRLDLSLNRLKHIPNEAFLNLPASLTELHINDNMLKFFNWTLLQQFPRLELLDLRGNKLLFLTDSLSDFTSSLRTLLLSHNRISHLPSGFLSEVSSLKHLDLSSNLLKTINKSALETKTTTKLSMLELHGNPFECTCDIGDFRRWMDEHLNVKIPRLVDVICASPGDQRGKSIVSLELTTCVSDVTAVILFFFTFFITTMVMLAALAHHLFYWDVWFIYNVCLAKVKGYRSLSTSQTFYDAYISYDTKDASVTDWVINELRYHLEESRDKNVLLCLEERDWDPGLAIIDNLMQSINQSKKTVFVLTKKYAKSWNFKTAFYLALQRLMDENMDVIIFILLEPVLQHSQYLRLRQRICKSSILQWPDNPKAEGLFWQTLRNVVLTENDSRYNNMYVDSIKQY
Summary of the method: as §1

human TLR9 = target: T3, human TLR9 (Homo sapiens, UniProt Q9NR96); test: TLR9 inhibition reporter assay (HEK-Blue cells, SEAP reporter, ODN2006 stimulation); conditions: HEK-Blue cells overexpressing human TLR9, SEAP reporter, ODN2006 5 nM
T3 construct: host or cells: HEK-Blue cells
T3 sequence (Q9NR96 26-1032): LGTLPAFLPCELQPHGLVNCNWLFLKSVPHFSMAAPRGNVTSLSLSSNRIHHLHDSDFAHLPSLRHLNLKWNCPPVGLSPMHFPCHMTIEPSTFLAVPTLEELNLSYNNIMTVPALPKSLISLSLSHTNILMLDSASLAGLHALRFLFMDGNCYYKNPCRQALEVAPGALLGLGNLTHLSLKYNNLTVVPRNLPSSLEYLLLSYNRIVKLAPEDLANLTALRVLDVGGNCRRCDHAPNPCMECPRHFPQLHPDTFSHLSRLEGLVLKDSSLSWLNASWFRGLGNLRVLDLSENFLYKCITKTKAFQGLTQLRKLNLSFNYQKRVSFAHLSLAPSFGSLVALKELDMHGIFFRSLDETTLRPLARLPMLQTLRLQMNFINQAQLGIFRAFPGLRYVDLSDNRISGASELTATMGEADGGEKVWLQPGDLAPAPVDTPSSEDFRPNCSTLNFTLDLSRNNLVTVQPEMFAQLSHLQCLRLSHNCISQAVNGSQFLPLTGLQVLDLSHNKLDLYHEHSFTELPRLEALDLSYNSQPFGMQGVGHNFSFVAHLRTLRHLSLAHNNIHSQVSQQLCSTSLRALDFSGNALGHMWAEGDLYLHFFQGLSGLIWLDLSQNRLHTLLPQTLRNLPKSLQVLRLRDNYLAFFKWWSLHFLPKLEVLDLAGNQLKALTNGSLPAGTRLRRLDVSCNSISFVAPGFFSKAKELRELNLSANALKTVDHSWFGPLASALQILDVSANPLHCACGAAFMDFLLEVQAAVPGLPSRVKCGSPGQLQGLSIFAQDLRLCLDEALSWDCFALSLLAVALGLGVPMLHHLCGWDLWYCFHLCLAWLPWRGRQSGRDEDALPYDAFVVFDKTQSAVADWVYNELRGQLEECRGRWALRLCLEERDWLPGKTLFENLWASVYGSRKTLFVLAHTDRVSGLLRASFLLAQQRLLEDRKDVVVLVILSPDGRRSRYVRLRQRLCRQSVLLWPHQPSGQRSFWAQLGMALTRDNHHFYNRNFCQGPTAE
Summary of the method: as §1

IC50 (human TLR7) [nM]	IC50 (human TLR8) [nM]	IC50 (human TLR9) [nM]	Structure (SMILES)
10	34	> 50000	Cc1cc(-c2[nH]c3ccc(C4CN(CCS(C)(=O)=O)CCO4)cc3c2C(C)C)cn2ncnc12 (stereo not drawn) [Example 343, 2-(3-isopropyl-2-(8-methyl-[1,2,4]triazolo[1,5-a]pyridin-6-yl)-1H-indol-5-yl)-4-(2-(methylsulfonyl)ethyl)morpholine]
7	14	> 50000	Cc1cc(-c2[nH]c3ccc(C4CN(CCS(C)(=O)=O)CCO4)cc3c2C(C)C)cn2ncnc12 (stereo not drawn) [Example 344]
6	12	8610	COCCN1CCOC(c2ccc3[nH]c(-c4cc(OC)c5ncnn5c4)c(C(C)C)c3c2)C1 (stereo not drawn) [Example 345]
25	24	> 50000	Cc1c(-c2[nH]c3ccc(C4CN(CCS(C)(=O)=O)CCO4)cc3c2C(C)C)cn2ncnc2c1C (stereo not drawn) [Example 346]
22	14	> 50000	Cc1c(-c2[nH]c3ccc(C4CN(CCS(C)(=O)=O)CCO4)cc3c2C(C)C)cn2ncnc2c1C (stereo not drawn) [Example 347]
28	31	48300	Cc1cc(-c2[nH]c3ccc(C4CN(CCS(C)(=O)=O)CCO4)cc3c2C(C)C)cc(C)n1 (stereo not drawn) [Example 351]
42	15	3700	COCCN1CCOC(c2ccc3[nH]c(-c4cc(C)nc(C)c4)c(C(C)C)c3c2)C1 (stereo not drawn) [Example 352]
95	31	> 50000	Cc1cc(-c2[nH]c3ccc(C4CN(CCS(C)(=O)=O)CCO4)cc3c2C(C)C)cc(C)n1 (stereo not drawn) [Example 353]
5	1.4	28900	Cc1cc(-c2[nH]c3ccc(C4CN(CC(C)(C)O)CCO4)cc3c2C(C)C)cn2ncnc12 (stereo not drawn) [Example 355, 1-(2-(3-isopropyl-2-(8-methyl-[1,2,4]triazolo[1,5-a]pyridin-6-yl)-1H-indol-5-yl)morpholino)-2-methylpropan-2-ol]
36	5.4	1970	Cc1cc(-c2[nH]c3ccc(C4CN(CC(C)(C)O)CCO4)cc3c2C(C)C)cc(C)n1 (stereo not drawn) [Example 357]
91	1.9	4840	Cc1cc(-c2[nH]c3ccc(C4CN(CC(C)(C)O)CCO4)cc3c2C(C)C)cc(C)n1 (stereo not drawn) [Example 358]
0.56	4.7	3630	CCN(C)CC(=O)N1CCOC(c2ccc3[nH]c(-c4cc(OC)c5ncnn5c4)c(C(C)C)c3c2)C1 (stereo not drawn) [Example 359, 2-(ethyl(methyl)amino)-1-(2-(3-isopropyl-2-(8-methoxy-[1,2,4]triazolo[1,5-a]pyridin-6-yl)-1H-indol-5-yl)morpholino)ethanone]
11	68	> 50000	COc1cc(-c2[nH]c3ccc(C4CN(C(=O)CN5CCS(=O)(=O)CC5)CCO4)cc3c2C(C)C)cn2ncnc12 (stereo not drawn) [Example 360]
0.91	2.5	5320	COc1cc(-c2[nH]c3ccc(C4CN(C(=O)CNC5(C)COC5)CCO4)cc3c2C(C)C)cn2ncnc12 (stereo not drawn) [Example 361]
6	183	21700	Cc1cc(-c2[nH]c3ccc(C4CCC5(CC4)NC(=O)NC5=O)cc3c2C(C)C)cc(C)n1 (stereo not drawn) [Example 366, 8-(2-(2,6-dimethylpyridin-4-yl)-3-isopropyl-1H-indol-5-yl)-1,3-diazaspiro[4.5]decane-2,4-dione]
0.45	1.6	2480	COc1cc(-c2[nH]c3ccc(C4CNC(C)(C)CO4)cc3c2C(C)C)cn2ncnc12 (stereo not drawn) [Example 368]
0.5	0.48	2620	COc1cc(-c2[nH]c3ccc(C4CNC(C)(C)CO4)cc3c2C(C)C)cn2ncnc12 (stereo not drawn) [Example 369]
2	0.35	14800	Cc1c(-c2[nH]c3ccc(C4CNC(C)(C)CO4)cc3c2C(C)C)cn2ncnc2c1C (stereo not drawn) [Example 370]
0.92	1.3	15500	Cc1c(-c2[nH]c3ccc(C4CNC(C)(C)CO4)cc3c2C(C)C)cn2ncnc2c1C (stereo not drawn) [Example 371]
20	110	5900	COc1cc(-c2[nH]c3ccc(C4CN(C(=O)CN(C)C)C(C)(C)CO4)cc3c2C(C)C)cn2ncnc12 (stereo not drawn) [Example 374]
2	5.2	4720	COc1cc(-c2[nH]c3ccc(C4CN(C)C(C)(C)CO4)cc3c2C(C)C)cn2ncnc12 (stereo not drawn) [Example 377]

Structure (SMILES)	IC50 (human TLR7) [nM]	IC50 (human TLR8) [nM]	IC50 (human TLR9) [nM]
Cc1cc(-c2[nH]c3ccc(C4CN5CCC4CC5)cc3c2C(C)C)cn2ncnc12 (stereo not drawn) [Example 364]	0.64	3.8	1050
Cc1cc(-c2[nH]c3ccc(C4CN5CCC4CC5)cc3c2C(C)C)cn2ncnc12 (stereo not drawn) [Example 365]	0.22	1.6	745
